From patent publication US8956656B2, “Production of small particles” (Nano Fiber Matrices B.V., priority 2003, dated 2015)
Values belong to the compound of their own block, whether it stands above or below them.

What was measured:
Type in all cases: physicochemical
[1] = Optical microscopy of gels and reference solutions
Experimental: Furosemide, 5 mg, (15×10^−3 mmol), together with 12.5 mg (20×10^−3 mmol) of cHexAm(PheAmBn)(CH2CH2OCH2CH2OH)2 (A), or 12.9 mg (20×10^−3 mmol) of cHexAm(PheAmPhOMe)(CH2CH2OCH2CH2OH)2 (B), or 18.4 mg (20×10^−3 mmol) of cHexAmPheOCH2CH2OCH2CH2OH(C), were dissolved in 50 μL of propylene glycol, 50 μL of PEG400, and 900 μL of water by heating until a clear solution was obtained. As reference, a sample without gelator was prepared (D).
Danazol, 1 mg, (3×10^−3 mmol), together with 3.9 mg (6×10^−3 mmol) of cHexAm(PheAmAQ)(CH2CH2OCH2CH2OH)2 (A), or 5.4 mg (6×10^−3 mmol) of cHexAmPheOCH2CH2OCH2CH2OH (B), were dissolved in 50 μL of DMSO and 950 μL of distilled water by heating until a clear solution was obtained. As reference, a sample without gelator was prepared (C).
Cyclosporin A, 2.5 mg, (2.1×10^−3 mmol), together with 6.3 mg (10×10^−3 mmol) of cHexAm(PheAmBn)(CH2CH2OCH2CH2OH)2 (A) or 9.2 mg (10×10^−3 mmol) of cHexAmPheOCH2CH2OCH2CH2OH (B), were dissolved in 25 μL of propylene glycol, 25 μL of PEG400, and 450 μL of distilled water by heating until a clear solution was obtained. As reference, a sample without gelator was prepared (C).

[2] = TEM analysis of particle size in gel or freeze-dried powder
Experimental: (§1) To a solution containing 4.6 mg (7.6×10^−3 mmol) of cHexAmMetOH gelator and 1.3 mg (3.8×10^−3 mmol) of danazol in 100 μL of DMSO, 900 μL of distilled water were quickly added. […] In a reference sample consisting only of danazol in 100 μL of DMSO and 900 μL of distilled water, rod-shaped danazol particles are 0.5-10 μm wide and 15-53 μm long.
as §1, with “7” for “4.6”, “cHexAmPheOCH2CH2OCH2CH2OH” for “cHexAmMetOH”
Example 6 was repeated but with an increased molar ratio of gelator to danazol, of 5:1.
To a solution containing 1.96 mg (2.9×10^−3 mmol) of cHexAm(PheAQ)(CH2CH2OCH2CH2OH)2 gelator and 1.0 mg (2.9×10^−3 mmol) of danazol in 50 μL of DMSO, 950 μL of distilled water were quickly added.
In a reference sample consisting only of danazol in 100 μL of DMSO to which 900 μL of distilled water was added, rod-shaped danazol particles were formed, which were 0.5-10 μm wide and 15-53 μm long.
Example 8 was repeated with an increased molar ratio of gelator to danazol (from 1:1 to 2:1).
Freeze-drying of a gel containing cHexAmPheOCH2CH2OCH2CH2OH and danazol in a 5:1 molar ratio, in DMSO/water mixture (50 μL/950 μL) yielded a dry powder of gelator and danazol.
Freeze-drying of a gel containing cHexAm(PheAQ)(CH2CH2O CH2CH2OH)2 and danazol in a 5:1 molar ratio, in DMSO/water (50 μL/950 μL) yielded a dry powder of gelator and danazol. […]

[3] = Stability in time of pyrene particles in a gel (TEM)
Experimental: To determine the stability in time of pyrene particles in a gel, samples were prepared as in Example 3 and examined with TEM after 7 days, 18 days, 1 month and 2 months. As reference, samples containing only pyrene in DMSO/H2O (100 μL/900 μL) were also prepared. Moreover, to determine the effect of the gelator in solution, i.e. not of the gel, samples containing 4 mg (6.0×10^−3 mmol) of cHexAm(PheAQ)(CH2CH2OCH2CH2OH)2 gelator, 1.22 mg (6.0×10^−3 mmol) of pyrene, 100 μL of DMSO and 900 μL of 1N HCl were prepared. The presence of HCl causes the gelator to dissolve and therefore the sample remains a solution. All samples were kept at room temperature, in the dark. FIG. 1: after 7 days only very few particles, 37-185 nm, are present in the sample; after 18 days more particles, 30-190 nm, can be observed; after 1 month also some crystals, ˜150 nm, can be observed; after 2 months more crystals with sizes ranging from 80 to 200 nm are present. FIG. 2: after 7 days crystals, 0.2-3 μm, can be observed; after 18 days more of such crystals can be observed; after 1 month also larger crystals, 6 μm, can be seen; after 2 months more of such crystals can be observed. FIG. 3: after 7 days, 18 days or 1 month crystals, 0.4 to 9 μm, are present; after 2 months crystals, 2-12 μm, can be observed.

Gel test of gelators = settings: 3 mg/mL in H2O
Experimental: Gel test: 0.3 mg/mL in H2O or PBS: clear gel; 0.5 mg/mL in H2O/DMSO (19:1): clear gel; 0.6 mg/mL in H2O/EtOH (19:1): clear gel; 25 mg/ml in EtOH: gel.
Gel test: 3 mg/mL in H2O: gel.
Gel test: 1.0 mg/mL in H2O: gel; acetone 7.0 mg/mL: clear gel.
Gel test: 3 mg/mL in H2O: clear gel.
Gel test: 3.0 mg/mL in H2O: gel

[4] = gel of cHexAm(PheAQ)(CH2CH2OCH2CH2OH)2, 1:1 molar
[5] = gel of cHexAm(PheAQ)(CH2CH2OCH2CH2OH)2, gelator:danazol 2:1
[6] = gel of cHexAm(PheAQ)(CH2CH2OCH2CH2OH)2, gelator:danazol 5:1
[7] = gel of cHexAmPheOCH2CH2OCH2CH2OH, 2:1 molar
[8] = gel of cHexAmPheOCH2CH2OCH2CH2OH, gelator:danazol 5:1
[9] = reference sample, only danazol in 100 μL DMSO and 900 μL water
[10] = FIG. 6 (b): gel of cHexAmPheOCH2CH2OCH2CH2OH, DMSO/water

butterfly-shaped crystals (long axis) ([1]; FIG. 5 (a): gel of cHexAm(PheAmBn)(CH2CH2OCH2CH2OH)2, PG/PEG400/water): ~25 μm
butterfly-shaped crystals (long axis) ([1]; FIG. 5 (b): gel of cHexAm(PheAmPhOMe)(CH2CH2OCH2CH2OH)2, PG/PEG400/water): ~25 μm
globular crystals ([1]; FIG. 5 (c): gel of cHexAmPheOCH2CH2OCH2CH2OH, PG/PEG400/water): ~25 μm
rod-shaped crystals (long axis) ([1]; FIG. 5 (d): reference without gelator, PG/PEG400/water): 25-250 μm
SMILES: NS(=O)(=O)c1cc(C(=O)O)c(NCc2ccco2)cc1Cl [furosemide]

average size of danazol particles ([2]; freeze-dried powder of gel of cHexAm(PheAQ)(CH2CH2O CH2CH2OH)2, 5:1, DMSO/water 50/950 μL): 14-70 nm
width of very few rod-shaped danazol particles ([2]; freeze-dried powder of gel of cHexAmPheOCH2CH2OCH2CH2OH, 5:1): 500-900 nm
average size of danazol particles ([2]; freeze-dried powder of gel of cHexAmPheOCH2CH2OCH2CH2OH, 5:1, DMSO/water 50/950 μL): 20 nm
length of some rod-shaped danazol particles [2, 4]: 9 μm
width of some rod-shaped danazol particles [2, 4]: 0.7 μm
average size of danazol particles ([2]; gel of cHexAm(PheAQ)(CH2CH2OCH2CH2OH)2, 1:1 molar, DMSO/water 50/950 μL): 140-700 nm
average size of danazol particles [2, 5]: 28 nm
size of very few danazol particles [2, 5]: 10 μm
average size of danazol particles [2, 6]: 14 nm
size of some danazol particles [2, 6]: 400 nm
length of rod-shaped danazol particles ([2]; gel of cHexAmMetOH, 2:1 molar, DMSO/water 100/900 μL): 1-10 μm
length of rod-shaped danazol particles [2, 7]: 0.6-6 μm
width of rod-shaped danazol particles [2, 7]: 0.2-0.6 μm
average size of danazol particles [2, 8]: 20 nm
size of some danazol particles [2, 8]: approximately 200 nm
length of rod-shaped danazol particles [2, 9]: 15-53 μm
width of rod-shaped danazol particles [2, 9]: 0.5-10 μm
amorphous globular particles ([1]; FIG. 6 (a): gel of cHexAm(PheAmAQ)(CH2CH2OCH2CH2OH)2, DMSO/water): < 2 μm
amorphous globular particles [1, 10]: < 2 μm
some needle-shaped crystals (long axis) [1, 10]: 25-50 μm
rod-shaped crystals ([1]; FIG. 6 (c): reference without gelator, DMSO/water): 20-120 μm
SMILES: C#C[C@]1(O)CC[C@H]2[C@@H]3CCC4=Cc5oncc5C[C@]4(C)[C@H]3CC[C@@]21C [danazol]

SMILES: c1cc2ccc3cccc4ccc(c1)c2c34 [pyrene]
size of pyrene particles ([3]; gel of cHexAm(PheAQ)(CH2CH2OCH2CH2OH)2, DMSO/H2O, room temperature, dark, after 7 days (FIG. 1)): 37-185 nm
size of pyrene crystals ([3]; gel of cHexAm(PheAQ)(CH2CH2OCH2CH2OH)2, after 1 month (FIG. 1)): ~150 nm
size of pyrene particles ([3]; gel of cHexAm(PheAQ)(CH2CH2OCH2CH2OH)2, after 18 days (FIG. 1)): 30-190 nm
size of larger pyrene crystals ([3]; gelator in solution, DMSO/1N HCl, after 1 month (FIG. 2)): 6 μm
size of pyrene crystals ([3]; gelator in solution, DMSO/1N HCl, after 7 days (FIG. 2)): 0.2-3 μm
size of pyrene crystals ([3]; reference, only pyrene in DMSO/H2O, after 2 months (FIG. 3)): 2-12 μm

SMILES: COc1ccc(NC(=O)[C@H](Cc2ccccc2)NC(=O)[C@@H]2C[C@H](C(=O)O)C[C@H](C(=O)O)C2)cc1 [cHex(AmPheAmPhOMe)(COOH)2]
Gel test (Gel test of gelators): clear gel

SMILES: O=C(O)[C@@H]1C[C@H](C(=O)O)C[C@H](C(=O)N[C@@H](Cc2ccccc2)C(=O)NCc2ccccc2)C1 [cHex(AmPheAmBn)(COOH)2]
Gel test (Gel test of gelators): gel
